Results on 18 compounds are retold here after US8592629B2, “Sulfonamide derivatives as Nav 1.7 inhibitors” (Pfizer Limited, priority 2010, dated 2013).

In this experiment the target is T1, Nav1.7 (or SCN9A) channel (Homo sapiens, UniProt Q15858).
T1 construct: expressed in transfected cells
The experiment is described as follows: Nav1.7 (hSCN9A) block in HEK cells, Ionworks Quattro automated electrophysiology. The experiment is classed as cell-based. As to conditions: Ionworks Quattro assay (IW); HEK cells stably transfected with hSCN9A; read-out: Nav1.7 EIC50 (IW). As for the experimental part: The ability of the compounds of formula (I) to block the Nav1.7 (or SCN9A) channel were measured using the assay described below.
Human Embryonic Kidney (HEK) cells were transfected with an hSCN9A construct using lipofectamine reagent (Invitrogen), using standard techniques. Cells stably expressing the hSCN9A constructs were identified by their resistance to G-418 (400 μg/ml). Clones were screened for expression using the whole-cell voltage-clamp technique.
HEK cells stably transfected with hSCN9A were maintained in DMEM medium supplemented with 10% heat-inactivated fetal bovine serum and 400 μg/ml G-418 in an incubator at 37° C. with a humidified atmosphere of 10% CO2. For HTS, cells were harvested from flasks by trypsinization and replated in an appropriate multi-well plate (typically 96 or 384 wells/plate) such that confluence would be achieved within 24 hours of plating. For electrophysiological studies, cells were removed from the culture flask by brief trypsinization and re-plated at low density onto glass cover slips. Cells were typically used for electrophysiological experiments within 24 to 72 hours after plating.
Electrophysiological assays were also conducted using the lonworks Quattro automated electrophysiological platform (Molecular Devices Corp). Intracellular and extracellular solutions were as described above with the following changes, 120 μg/ml amphotericin was added to the intracellular solution to perforate the membrane and allow electrical access to the cells. hSCN9A cells were grown and harvested as for PatchXpress and cells were resuspended in extracellular solution at a concentration of 1×10^6 cells/ml. The onboard liquid handling facility of the Ionworks Quattro was used for dispensing cells and application of test compounds. A voltage protocol was then applied that comprised of a voltage step to fully inactivate the sodium channels, followed by a brief hyperpolarized recovery period to allow partial recovery from inactivation for unblocked sodium channels, followed by a test depolarized voltage step to assess magnitude of inhibition by test compound. Compound effect was determined based on current amplitude difference between the pre-compound addition and post-compound addition scans.
Compounds of the Examples were tested in the assays described above and found to have the Nav1.7 EIC50 (μM) values specified in the table below. All data are derived from the PatchXpress assay unless explicitly stated otherwise.

T1 sequence (Q15858 whole entry): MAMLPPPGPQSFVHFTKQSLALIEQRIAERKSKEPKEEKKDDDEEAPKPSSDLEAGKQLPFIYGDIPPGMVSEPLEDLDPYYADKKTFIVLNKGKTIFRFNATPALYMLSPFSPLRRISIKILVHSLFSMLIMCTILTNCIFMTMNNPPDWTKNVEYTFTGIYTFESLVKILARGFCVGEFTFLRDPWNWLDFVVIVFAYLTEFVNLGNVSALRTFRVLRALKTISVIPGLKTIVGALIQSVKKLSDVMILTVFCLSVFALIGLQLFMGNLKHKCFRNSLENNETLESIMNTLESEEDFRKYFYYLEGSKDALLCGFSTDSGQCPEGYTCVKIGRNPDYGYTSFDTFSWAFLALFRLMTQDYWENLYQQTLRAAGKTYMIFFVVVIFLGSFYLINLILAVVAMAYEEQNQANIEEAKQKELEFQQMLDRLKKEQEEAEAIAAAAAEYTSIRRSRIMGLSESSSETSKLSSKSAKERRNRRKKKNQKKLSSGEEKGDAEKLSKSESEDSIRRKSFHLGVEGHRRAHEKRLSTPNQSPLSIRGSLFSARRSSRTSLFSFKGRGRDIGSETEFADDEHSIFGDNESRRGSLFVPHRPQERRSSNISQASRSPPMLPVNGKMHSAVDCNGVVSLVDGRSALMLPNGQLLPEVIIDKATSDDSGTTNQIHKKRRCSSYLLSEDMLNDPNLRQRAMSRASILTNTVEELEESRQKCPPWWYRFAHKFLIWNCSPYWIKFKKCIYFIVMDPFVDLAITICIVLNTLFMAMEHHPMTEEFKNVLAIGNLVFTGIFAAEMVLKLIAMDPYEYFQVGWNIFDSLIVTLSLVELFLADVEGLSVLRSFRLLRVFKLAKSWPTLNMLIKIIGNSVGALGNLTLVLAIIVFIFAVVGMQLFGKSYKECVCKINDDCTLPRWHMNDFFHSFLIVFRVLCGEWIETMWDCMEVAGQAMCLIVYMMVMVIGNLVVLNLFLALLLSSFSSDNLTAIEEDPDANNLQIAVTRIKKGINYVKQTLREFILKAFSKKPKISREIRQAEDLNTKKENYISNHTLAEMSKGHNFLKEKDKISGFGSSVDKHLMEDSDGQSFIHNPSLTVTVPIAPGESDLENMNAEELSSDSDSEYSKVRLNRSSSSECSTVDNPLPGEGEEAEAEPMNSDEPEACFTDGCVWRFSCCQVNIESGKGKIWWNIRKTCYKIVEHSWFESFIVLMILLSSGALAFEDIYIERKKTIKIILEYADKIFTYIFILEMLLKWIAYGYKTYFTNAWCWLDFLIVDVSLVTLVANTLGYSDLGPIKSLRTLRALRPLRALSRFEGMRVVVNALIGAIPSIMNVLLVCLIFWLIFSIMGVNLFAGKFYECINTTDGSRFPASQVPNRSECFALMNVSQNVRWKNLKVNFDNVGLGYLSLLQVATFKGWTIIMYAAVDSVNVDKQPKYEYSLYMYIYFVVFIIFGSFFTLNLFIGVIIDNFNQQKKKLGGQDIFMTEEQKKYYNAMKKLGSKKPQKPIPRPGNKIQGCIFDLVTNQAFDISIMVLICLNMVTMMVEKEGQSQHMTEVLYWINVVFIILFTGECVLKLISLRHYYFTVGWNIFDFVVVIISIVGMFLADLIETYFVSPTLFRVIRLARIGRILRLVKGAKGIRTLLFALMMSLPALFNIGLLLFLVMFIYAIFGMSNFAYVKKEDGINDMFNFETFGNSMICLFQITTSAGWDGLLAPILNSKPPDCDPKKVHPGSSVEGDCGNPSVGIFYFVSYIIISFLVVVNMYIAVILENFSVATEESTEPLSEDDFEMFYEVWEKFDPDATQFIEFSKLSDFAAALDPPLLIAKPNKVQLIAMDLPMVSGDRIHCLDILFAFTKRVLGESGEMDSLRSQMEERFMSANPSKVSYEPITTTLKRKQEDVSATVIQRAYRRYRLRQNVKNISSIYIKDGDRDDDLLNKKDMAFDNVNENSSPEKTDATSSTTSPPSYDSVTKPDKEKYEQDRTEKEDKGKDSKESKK

Turning to `CS(=O)(=O)NC(=O)c1cc(F)c(Oc2ncc(Cl)cn2)cc1F` [Example 198, 4-[(5-chloropyrimidin-2-yl)oxy]-2,5-difluoro-N-(methylsulfonyl)benzamide], the IC50 is > 323 µM.

On to `Cc1cc(Oc2cc(F)c(C(=O)NS(C)(=O)=O)cc2F)ncn1` [Example 199, 2,5-difluoro-4-[(6-methylpyrimidin-4-yl)oxy]-N-(methylsulfonyl)benzamide], for which the IC50 is > 323 µM. Turning to `COc1cc(Oc2cc(F)c(C(=O)NS(C)(=O)=O)cc2F)ncn1` [Example 200, 2,5-difluoro-4-[(6-methoxypyrimidin-4-yl)oxy]-N-(methylsulfonyl)benzamide], the IC50 amounted to 173 µM.

Take `CS(=O)(=O)NC(=O)c1ccc(Oc2ccc3ccccc3n2)c(C#N)c1` [Example L34, 3-cyano-N-(methylsulfonyl)-4-(quinolin-2-yloxy)benzamide]: the IC50 came out at 222 µM. As for `CS(=O)(=O)NC(=O)c1ccc(Oc2cnc3ccccc3c2)c(C#N)c1` [Example L35, 3-cyano-N-(methylsulfonyl)-4-(quinolin-3-yloxy)benzamide], the IC50 amounted to 50.2 µM. With `CS(=O)(=O)NC(=O)c1ccc(Oc2nccc3ccccc23)c(Cl)c1` [Example L36, 3-chloro-4-(isoquinolin-1-yloxy)-N-(methylsulfonyl)benzamide], the IC50 was > 323 µM.

For the compound `CS(=O)(=O)NC(=O)c1ccc(Oc2cncc3ccccc23)c(C#N)c1` [Example L37, 3-cyano-4-(isoquinolin-4-yloxy)-N-(methylsulfonyl)benzamide], the IC50 is > 323 µM. Turning to `CS(=O)(=O)NC(=O)c1cc(Cl)c(Oc2nccc3ccccc23)cc1F` [Example L38, 5-chloro-2-fluoro-4-(isoquinolin-1-yloxy)-N-(methylsulfonyl)benzamide], the IC50 is > 323 µM.

`CS(=O)(=O)NC(=O)c1ccc(Oc2cc3ccccc3cn2)c(C#N)c1` [Example L43, 3-cyano-4-(isoquinolin-3-yloxy)-N-(methylsulfonyl)benzamide]: the IC50 was 41 µM.

`Cn1cnc2cccc(Oc3cc(F)c(C(=O)NS(C)(=O)=O)cc3Cl)c21` [Example L44, 5-chloro-2-fluoro-4-[(1-methyl-1H-benzimidazol-7-yl)oxy]-N-(methylsulfonyl)benzamide]: the IC50 is > 323 µM. In the case of `COc1c(C(=O)NS(C)(=O)=O)ccc(Oc2ccc(Oc3ccc(F)cc3)nc2)c1F` [Example L47, 3-fluoro-4-{[6-(4-fluorophenoxy)pyridin-3-yl]oxy}-2-methoxy-N-(methylsulfonyl)benzamide], the IC50 amounted to 121 µM. For the compound `CCCc1ccc(Oc2ccc(C(=O)NS(C)(=O)=O)cc2F)cn1` [Example L48, 3-fluoro-N-(methylsulfonyl)-4-[(6-propylpyridin-3-yl)oxy]benzamide], the IC50 was 38.5 µM.

In the case of `Cc1ccc(Oc2ccc(C(=O)NS(C)(=O)=O)cc2F)cn1` [Example L51, 3-fluoro-4-[(6-methylpyridin-3-yl)oxy]-N-(methylsulfonyl)benzamide], the IC50 worked out at 300 µM. `CCc1ccc(Oc2ccc(C(=O)NS(C)(=O)=O)c(C)c2)cn1` [Example L55, 4-[(6-ethylpyridin-3-yl)oxy]-2-methyl-N-(methylsulfonyl)benzamide]: the IC50 was determined as 300 µM. `Cc1ncc(Oc2ccc(C(=O)NS(C)(=O)=O)cc2Cl)cn1` [Example L58, 3-chloro-4-[(2-methylpyrimidin-5-yl)oxy]-N-(methylsulfonyl)benzamide]: the IC50 stood at 216 µM. For `Cc1ncc(Oc2ccc(C(=O)NS(C)(=O)=O)cc2C(F)(F)F)cn1` [Example L61, 4-[(2-methylpyrimidin-5-yl)oxy]-N-(methylsulfonyl)-3-(trifluoromethyl)benzamide], the IC50 was found to be 100 µM.

For `COc1c(C(=O)NS(C)(=O)=O)ccc(Oc2cnc(N3CCCCC3)nc2)c1F` [Example L62, 3-fluoro-2-methoxy-N-(methylsulfonyl)-4-[(2-piperidin-1-ylpyrimidin-5-yl)oxy]benzamide], the IC50 turned out to be 57.4 µM. Turning to `CS(=O)(=O)NC(=O)c1ccc(Oc2cncnc2)c(Cl)c1` [Example L64, 3-chloro-N-(methylsulfonyl)-4-(pyrimidin-5-yloxy)benzamide], the IC50 was > 323 µM.
